{"source": "patent US10137166B2", "about": "“Compositions and methods for affecting movement of contaminants, bodily fluids or other entities, and/or affecting other physiological conditions” (Massachusetts Institute of Technology, priority 2006, dated 2018)", "key": {"[1]": {"system": "liver (lobus sinister lateralis)", "assay": "Liver, rostral to caudal cut of the lobus sinister lateralis (relatively low pressure vessel); hemostasis", "format": "in vivo, adult rat", "details": "1% peptide solution, topically and in the cut", "description": "Profuse bleeding ensued. A 1% peptide solution (RADA16-1) was applied to the cut and in its vicinity using a 27 gauge needle and 4 cc syringe. All bleeding stopped within 10 seconds. A series of pictures was obtained. […] After treating the site with 1% peptide solution (applied topically and in the cut), all bleeding stopped within 10 seconds. A clear area was observed between the two halves of the lobus sinister lateralis. This procedure was repeated several times with the same result."}, "spinotrapezius muscles": {"system": "spinotrapezius muscles", "assay": "Muscle trauma, deep cut in the spinotrapezius muscles on the back; hemostasis", "format": "in vivo, rat", "details": "1% peptide solution applied in the cut", "description": "The spinotrapezius muscles on the back of the rats were exposed and a deep cut was made in the muscle, after which 1% peptide solution (RADA16-I) was applied in the cut. Within 10 seconds, all bleeding had stopped. With the application of iced saline alone, control animals continued to bleed after 20 seconds."}, "[2]": {"system": "liver (lobus sinistras laterialis)", "assay": "Liver, removal of 1/4 of the lobe, topical treatment of the margin; hemostasis", "format": "in vivo", "method": "In other experiments ¼ of the lobe in the lower right quadrant of the lobus sinistras laterialis was removed, and the margin was treated with a topical application of 2% peptide (RADA16-I) to the site of injury. Bleeding stopped in less than 10 seconds."}, "muscle of the hind limb": {"system": "muscle of the hind limb", "assay": "Hind limb muscle wounds (porteocaudalis and musculus tibialis cranialis); hemostasis", "format": "in vivo", "description": "However when an artery or vein was transected 2% or higher material was needed to bring about hemostasis. With the application of iced saline alone, control animals continued to bleed after 20 seconds."}, "superior sagittal sinus": {"system": "superior sagittal sinus", "assay": "Complete transection of the superior sagittal sinus; hemostasis", "format": "in vivo", "details": "control animals still bleeding after 20 seconds", "description": "A higher concentration of peptide (e.g., approximately 3%-4%) was used in the latter experiment in order to achieve hemostasis. The three saline control cases continued to bleed after 20 seconds."}, "femoral artery": {"system": "femoral artery", "assay": "Femoral artery transection; hemostasis", "format": "in vivo, adult rats", "method": "The sciatic nerve and the adjacent femoral artery were exposed in adult rats, and the femoral artery was transected. Twelve rats were treated by application of 20 μl of a 1% solution of RADA 16-I peptide to the site of transection using a glass pipette attached to a syringe body, while controls were treated by applying cold saline to the site of transection. […] The saline control cases continued to bleed until the experiment was terminated at 110 seconds. […] A series of pictures was taken in an adult rat in which the femoral artery was transected. In the picture taken first, the sciatic nerve and the femoral artery are exposed. […] The assembled material can be suctioned off the site easily if desired.\nIn the saline controls, hemostasis was never reached."}, "[3]": {"system": "branch of the superior sagittal sinus in the brains of rats and hamsters", "assay": "Transection of a branch of the superior sagittal sinus in the brain; hemostasis assessed visually from time-stamped video", "format": "in vivo", "method": "Animals were anesthetized with an i.p. injection of ketamine (80 mg/kg) and xylazine (8 mg/kg). All surgical procedures were conducted under an operating microscope. Twenty-two animals, including 10 adult hamsters and 12 young adult female Spraque-Dawley rats (200-250 g), were treated with either iced saline or 20 μl of a 1% peptide solution at the site of the sinus branch transection. The material was prepared by dissolving RADA 16-1 (n-RADARADARADARADA-c; SEQ ID NO: 1) peptide in sterile water, and the peptide-containing solution was applied to the injured tissue with a 31 gauge needle attached to a 2 cc syringe.\nThe experiment was videotaped with a time stamp and was replayed one frame at a time to evaluate the length of time required for the peptide solution to form a gel, which effectively impeded bleeding. Hemostasis was assessed visually, and “complete hemostasis” was defined as the complete lack of movement of blood from the wound site.\nDurations were measured from the start of application of peptide solution to the completion of hemostasis after transection of the veins leading to the sinus in the brains of adult rats. […] In the saline controls, cessation of bleeding was never achieved. The saline control experiment was terminated at the same time point in order to prevent the animals from bleeding to death.\nA total of 22 rats and 64 hamsters have been subjected to experiments in which peptide-containing solutions effectively achieved hemostasis within 10 seconds following application to a site intracranial bleeding."}, "[4]": {"system": "liver and a major branch of the portal vein", "assay": "Liver, transverse cut transecting a major branch of the portal vein (higher pressure); hemostasis", "format": "in vivo", "method": "A series of pictures illustrate the experiment. […] The cut was treated with 4% peptide solution applied topically and in the cut. All bleeding stopped within 10 seconds. […] Thus, application of 4% peptide solution brings about complete hemostasis in a high pressure bleeding environment in less than 10 seconds. […] This procedure was repeated several times with the same result."}, "intestine (duodenum)": {"system": "intestine (duodenum)", "assay": "Perforated intestine at the level of the duodenum; leakage of gastric fluid", "format": "in vivo, adult rat", "method": "An additional volume of 2% peptide solution was injected into the duodenum at the level of the injury. […] In the control cut at the level of the duodenum, the wall of the intestine inverted and gastric fluids continued to leak from the site of injury when left untreated."}, "skin wounds": {"system": "skin wounds", "assay": "4 mm punch biopsy healing test of skin and subcutaneous tissue", "format": "in vivo", "details": "single application", "method": "The regions from which the biopsies were taken were either treated by a single application of self-assembling peptide (RADA16-I) solution or were left untreated. The wounds were left unbandaged. A series of pictures of a 4 mm punch biopsy healing test in which injured animals were treated with the self assembling peptide and compared to matching cases with no treatment illustrates the results. The wounds were photographed on day 0, day 1, day 4, and day 7. […] Treatment with the peptide appeared to speed healing by as much as 5 days in some cases."}, "[5]": {"details": "control cut treated 15 minutes after the injury"}}, "data": [{"substance": "n-RADARADARADARADA-c [RADA16-I]", "values": [{"measurement": "time until all bleeding stopped", "setting": "[1]", "value": "≤ 10", "unit": "s"}, {"measurement": "time until all bleeding had stopped", "setting": "spinotrapezius muscles", "value": "≤ 10", "unit": "s"}, {"measurement": "hemostasis at the margin after the peptide was removed", "setting": "[2]; 2% peptide, removed one minute later", "value": "complete hemostasis was achieved"}, {"measurement": "time until bleeding stopped", "setting": "[2]; topical 2% peptide", "value": "less than 10 seconds"}, {"measurement": "hemostasis in limb wounds", "setting": "muscle of the hind limb; between 1% to 100% peptide", "value": "hemostasis was achieved in all cases"}, {"measurement": "material concentration needed to bring about hemostasis", "setting": "muscle of the hind limb; when an artery or vein was transected", "value": "≥ 2", "unit": "%"}, {"measurement": "hemostasis after iced saline was removed and peptide solution applied", "setting": "superior sagittal sinus", "value": "complete hemostasis almost immediately"}, {"measurement": "time to hemostasis", "setting": "femoral artery; 20 μl of a 1% solution, all treated cases", "value": "less than 10 seconds"}, {"measurement": "hemostasis in picture series", "setting": "femoral artery; adult rat, after about five seconds", "value": "complete hemostasis was observed"}, {"measurement": "hemostasis after replacement of cold saline with the peptide solution", "setting": "femoral artery; control animals", "value": "almost immediate achievement of complete hemostasis"}, {"measurement": "time complete hemostasis was maintained", "setting": "femoral artery; duration of the test", "value": "≥ 1", "unit": "h"}, {"measurement": "time to complete hemostasis after application of the peptide solution", "setting": "[3]; 20 μl of a 1% peptide solution, rats and hamsters, all cases", "value": "≤ 10", "unit": "s"}, {"measurement": "hemostasis in picture series", "setting": "[3]; adult rat, five seconds after the peptide solution was applied", "value": "Complete hemostasis was achieved"}, {"measurement": "average duration from start of application to completion of hemostasis", "setting": "[3]; adult rats, transection of the veins leading to the sinus", "value": 8.3, "unit": "s"}, {"measurement": "hemostasis", "setting": "[4]; 1% solution", "value": "partial cessation of bleeding"}, {"measurement": "hemostasis", "setting": "[4]; 2% or 3% peptide solution", "value": "complete hemostasis was also achieved"}, {"measurement": "time until all bleeding stopped", "setting": "[4]; 4% peptide solution, topically and in the cut", "value": "≤ 10", "unit": "s"}, {"measurement": "bleeding at later time", "setting": "[4]; 4% peptide solution, ten minutes later, after physical stress", "value": "still no bleeding"}, {"measurement": "hemostasis after excess peptide structure was wiped away", "setting": "[4]; 30 seconds after treatment", "value": "hemostasis was maintained"}, {"measurement": "leakage of gastric fluids after treatment of the site", "setting": "intestine (duodenum); 2% peptide solution", "value": "all leakage of gastric fluids from the intestine stopped"}, {"measurement": "leakage after additional volume injected into the duodenum", "setting": "intestine (duodenum); 2% peptide solution, duration of the procedure", "value": "prevented all leakage from the intestine for one hour"}, {"measurement": "intestinal wall inversion", "setting": "intestine (duodenum); [5]", "value": "stopped the progression of the intestinal wall inversion"}, {"measurement": "leakage when treated after the injury", "setting": "intestine (duodenum); [5]", "value": "stopped all leakage from this injury site"}, {"measurement": "wound healing versus untreated", "setting": "skin wounds; contraction of the wound site as early as day 1", "value": "healed much faster"}, {"measurement": "speeding of healing versus no treatment", "setting": "skin wounds; some cases", "value": "≤ 5", "unit": "days"}]}]}
